Source: ChEMBL document CHEMBL1201862, “PubChem BioAssay data set” (2004)
Structures can show the parent of a compound that is named as a salt.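 A five-concentration, 48-hour dose response in 96-well plates underlies each endpoint, interpolated linearly between surrounding concentrations. GI50 marks 50% less growth.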 Activity calls are given as the source filed them. No stated cut-off is given here; in the data, active = GI50 up to about 1.1 µM and inactive = higher.

Columns and labels:
Assay in all cases: inhibition of tumour cell growth, NCI panel, 48 h
[1] = test system: M14
[2] = test system: UACC-257
[3] = test system: U-251
[4] = test system: HCT-116
[5] = test system: EKVX
[6] = test system: SK-MEL-5
[7] = test system: SNB-75
[8] = test system: HT-29
[9] = test system: SK-MEL-2
[10] = test system: NCI-H460
[11] = test system: NCI-H522
[12] = test system: NCI-H226
[13] = test system: OVCAR-8
[14] = test system: RXF 393
[15] = test system: A498
[16] = test system: KM12
[17] = test system: MOLT-4
[18] = test system: PC-3
[19] = test system: Hs-578T

Compound: O=C1OC(=O)C2C1C1(c3ccccc3)OC2(c2ccccc2)c2c(Br)c(Br)c(Br)c(Br)c21 (stereo unspecified)
- GI50 [1]: > 100 µM (inactive)
- GI50 [2]: > 100 µM (inactive)
- GI50 [3]: > 100 µM (inactive)
- GI50 [4]: > 100 µM (inactive)
- GI50 [5]: > 100 µM (inactive)
- GI50 [6]: > 100 µM (inactive)
- GI50 [7]: > 100 µM (inactive)
- GI50 [8]: > 100 µM (inactive)
- GI50 [9]: > 100 µM (inactive)
- GI50 [10]: > 100 µM (inactive)
- GI50 [11]: > 100 µM (inactive)
- GI50 [12]: > 100 µM (inactive)
- GI50 [13]: > 100 µM (inactive)
- GI50 [14]: 42.3 µM (inactive)
- GI50 [15]: > 100 µM (inactive)
- GI50 [16]: > 100 µM (inactive)
- GI50 [17]: > 100 µM (inactive)

Compound: CNCc1cc(OC)ccc1-c1ccc(OC)c(OC)c1OC
- GI50 [1]: > 100 µM (inactive)
- GI50 [2]: > 100 µM (inactive)
- GI50 [3]: > 100 µM (inactive)
- GI50 [4]: > 94.6 µM (inactive)
- GI50 [5]: > 74.8 µM (inactive)
- GI50 [6]: 64.3 µM (inactive)
- GI50 [7]: 44.6 µM (inactive)
- GI50 [8]: 82.6 µM (inactive)
- GI50 [9]: > 100 µM (inactive)
- GI50 [10]: > 92 µM (inactive)
- GI50 [11]: > 100 µM (inactive)
- GI50 [12]: > 100 µM (inactive)
- GI50 [13]: > 100 µM (inactive)
- GI50 [14]: 69.7 µM (inactive)
- GI50 [15]: > 100 µM (inactive)
- GI50 [16]: > 85.9 µM (inactive)
- GI50 [17]: 99.3 µM (inactive)

Compound: SCc1ccc(-c2ccc(CS)cc2)cc1
- GI50 [1]: 14.3 µM (inactive)
- GI50 [2]: 21.1 µM (inactive)
- GI50 [3]: 15.1 µM (inactive)
- GI50 [4]: 7.55 µM (inactive)
- GI50 [5]: 26 µM (inactive)
- GI50 [6]: 15.6 µM (inactive)
- GI50 [7]: 10.7 µM (inactive)
- GI50 [8]: 26.9 µM (inactive)
- GI50 [9]: 19.7 µM (inactive)
- GI50 [10]: 10.4 µM (inactive)
- GI50 [11]: 17.8 µM (inactive)
- GI50 [12]: 18.4 µM (inactive)
- GI50 [13]: 21.3 µM (inactive)
- GI50 [14]: 16.8 µM (inactive)
- GI50 [15]: 36.5 µM (inactive)
- GI50 [16]: 3.11 µM (inactive)
- GI50 [18]: 17.4 µM (inactive)
- GI50 [17]: 2.14 µM (inactive)
- GI50 [19]: 3.98 µM (inactive)

Compound: Nc1nc(OCc2ccccc2)c2nc[nH]c2n1 [6-O-BENZYLGUANINE]
- GI50 [1]: 75.9 µM (inactive)
- GI50 [2]: 91 µM (inactive)
- GI50 [3]: 87.7 µM (inactive)
- GI50 [4]: 59.6 µM (inactive)
- GI50 [5]: 99.5 µM (inactive)
- GI50 [6]: 81.1 µM (inactive)
- GI50 [7]: 24.8 µM (inactive)
- GI50 [8]: 87.3 µM (inactive)
- GI50 [9]: 68.9 µM (inactive)
- GI50 [10]: 67.6 µM (inactive)
- GI50 [11]: 49.4 µM (inactive)
- GI50 [12]: 47.5 µM (inactive)
- GI50 [13]: 112 µM (inactive)
- GI50 [14]: 32.5 µM (inactive)
- GI50 [15]: 57.8 µM (inactive)
- GI50 [16]: 98.6 µM (inactive)
- GI50 [17]: 67.6 µM (inactive)

Compound: O=[N+]([O-])c1ccc(C[P+](c2ccccc2)(c2ccccc2)c2ccccc2)cc1
- GI50 [1]: 56.9 µM (inactive)
- GI50 [2]: 16.1 µM (inactive)
- GI50 [3]: 31.7 µM (inactive)
- GI50 [4]: 36.5 µM (inactive)
- GI50 [5]: > 100 µM (inactive)
- GI50 [6]: 57 µM (inactive)
- GI50 [7]: 35.9 µM (inactive)
- GI50 [8]: 32.9 µM (inactive)
- GI50 [9]: 25.4 µM (inactive)
- GI50 [10]: 71.3 µM (inactive)
- GI50 [11]: 32.7 µM (inactive)
- GI50 [12]: > 100 µM (inactive)
- GI50 [13]: 73.1 µM (inactive)
- GI50 [14]: 11.9 µM (inactive)
- GI50 [15]: > 100 µM (inactive)
- GI50 [16]: 52.5 µM (inactive)
- GI50 [17]: > 100 µM (inactive)

Compound: COc1ccc2cccc(C(=N)c3ccc(C)c4c3CCC4)c2c1
- GI50 [1]: 5.97 µM (inactive)
- GI50 [2]: 4.89 µM (inactive)
- GI50 [3]: 9.57 µM (inactive)
- GI50 [4]: 4.59 µM (inactive)
- GI50 [5]: 15.5 µM (inactive)
- GI50 [6]: 3.9 µM (inactive)
- GI50 [7]: 11.8 µM (inactive)
- GI50 [8]: 4.02 µM (inactive)
- GI50 [9]: 11.9 µM (inactive)
- GI50 [10]: 4.3 µM (inactive)
- GI50 [11]: 3.72 µM (inactive)
- GI50 [12]: 12.2 µM (inactive)
- GI50 [13]: 11.4 µM (inactive)
- GI50 [14]: 12.8 µM (inactive)
- GI50 [15]: 2.14 µM (inactive)
- GI50 [16]: 10.2 µM (inactive)
- GI50 [17]: 8.63 µM (inactive)

Compound: Cc1cccc(C)c1NC(=O)C(=O)C(C#N)c1ccccc1Cl (stereo unspecified)
- GI50 [1]: > 100 µM (inactive)
- GI50 [2]: > 100 µM (inactive)
- GI50 [3]: > 100 µM (inactive)
- GI50 [4]: > 100 µM (inactive)
- GI50 [5]: > 100 µM (inactive)
- GI50 [6]: > 100 µM (inactive)
- GI50 [7]: > 100 µM (inactive)
- GI50 [8]: > 100 µM (inactive)
- GI50 [9]: > 100 µM (inactive)
- GI50 [10]: > 100 µM (inactive)
- GI50 [11]: > 100 µM (inactive)
- GI50 [12]: > 100 µM (inactive)
- GI50 [13]: > 100 µM (inactive)
- GI50 [14]: > 100 µM (inactive)
- GI50 [15]: > 100 µM (inactive)
- GI50 [16]: > 100 µM (inactive)
- GI50 [17]: > 100 µM (inactive)

Compound: Nc1cc(=O)n(-c2ccccc2)c(=S)n1-c1ccccc1
- GI50 [1]: > 100 µM (inactive)
- GI50 [2]: > 100 µM (inactive)
- GI50 [3]: > 100 µM (inactive)
- GI50 [4]: > 100 µM (inactive)
- GI50 [5]: > 100 µM (inactive)
- GI50 [6]: > 100 µM (inactive)
- GI50 [7]: > 100 µM (inactive)
- GI50 [8]: > 100 µM (inactive)
- GI50 [9]: > 100 µM (inactive)
- GI50 [10]: > 100 µM (inactive)
- GI50 [11]: > 100 µM (inactive)
- GI50 [12]: > 100 µM (inactive)
- GI50 [13]: > 100 µM (inactive)
- GI50 [14]: > 100 µM (inactive)
- GI50 [15]: > 100 µM (inactive)
- GI50 [16]: > 100 µM (inactive)
- GI50 [17]: > 100 µM (inactive)

Compound: Cc1ccc(-n2c3nc(=O)n(C)c(=O)c-3nc3ccccc32)cc1
- GI50 [1]: 12.8 µM (inactive)
- GI50 [2]: 12.8 µM (inactive)
- GI50 [3]: 15.1 µM (inactive)
- GI50 [4]: 19.1 µM (inactive)
- GI50 [5]: 12.9 µM (inactive)
- GI50 [6]: 13.4 µM (inactive)
- GI50 [7]: 10.9 µM (inactive)
- GI50 [8]: 3.54 µM (inactive)
- GI50 [9]: 14.6 µM (inactive)
- GI50 [10]: 3.33 µM (inactive)
- GI50 [11]: 12.6 µM (inactive)
- GI50 [12]: 17.3 µM (inactive)
- GI50 [13]: 9.2 µM (inactive)
- GI50 [14]: 64.9 µM (inactive)
- GI50 [15]: 26.7 µM (inactive)
- GI50 [16]: 17.3 µM (inactive)
- GI50 [17]: 14.9 µM (inactive)

Compound: N=c1ccn2c(n1)O[C@H]1[C@H](O)[C@@H](CO)O[C@H]12 [ANCITABINE HYDROCHLORIDE]
- GI50 [1]: 0.253 µM (active)
- GI50 [2]: 78.7 µM (inactive)
- GI50 [3]: 15.1 µM (inactive)
- GI50 [4]: 0.282 µM (active)
- GI50 [5]: 62.1 µM (inactive)
- GI50 [6]: 9.23 µM (inactive)
- GI50 [7]: 532 µM (inactive)
- GI50 [8]: 135 µM (inactive)
- GI50 [9]: 411 µM (inactive)
- GI50 [10]: 0.154 µM (active)
- GI50 [11]: 47.4 µM (inactive)
- GI50 [13]: 0.658 µM (active)
- GI50 [14]: 79.8 µM (inactive)
- GI50 [15]: 13.6 µM (inactive)
- GI50 [18]: 2.79 µM (inactive)
- GI50 [17]: 0.207 µM (active)
- GI50 [19]: > 1000 µM (inactive)

Compound: CCc1cccc(C(C)C)c1NC(=O)C(=O)C(Cc1nc2ccccc2nc1O)C(=O)OC (stereo unspecified)
- GI50 [1]: > 100 µM (inactive)
- GI50 [2]: > 100 µM (inactive)
- GI50 [3]: > 100 µM (inactive)
- GI50 [4]: 40.7 µM (inactive)
- GI50 [5]: 5.19 µM (inactive)
- GI50 [6]: > 100 µM (inactive)
- GI50 [7]: 65.6 µM (inactive)
- GI50 [8]: 95.3 µM (inactive)
- GI50 [9]: > 100 µM (inactive)
- GI50 [10]: > 100 µM (inactive)
- GI50 [11]: 98.4 µM (inactive)
- GI50 [12]: > 100 µM (inactive)
- GI50 [13]: > 100 µM (inactive)
- GI50 [14]: > 100 µM (inactive)
- GI50 [15]: > 100 µM (inactive)
- GI50 [16]: > 100 µM (inactive)
- GI50 [17]: > 100 µM (inactive)

Compound: CCS(CC)(CC)CC1CCCC2=CCC(P(=O)(c3ccccc3)c3ccccc3)CC21 (stereo unspecified)
- GI50 [1]: 12.2 µM (inactive)
- GI50 [2]: > 10 µM (inactive)
- GI50 [3]: 10.2 µM (inactive)
- GI50 [4]: 7.36 µM (inactive)
- GI50 [5]: 14.3 µM (inactive)
- GI50 [6]: 13.2 µM (inactive)
- GI50 [7]: 11 µM (inactive)
- GI50 [8]: 9.12 µM (inactive)
- GI50 [9]: 14.2 µM (inactive)
- GI50 [10]: 10.3 µM (inactive)
- GI50 [11]: 11 µM (inactive)
- GI50 [12]: 18.7 µM (inactive)
- GI50 [13]: 11.4 µM (inactive)
- GI50 [14]: 9.66 µM (inactive)
- GI50 [15]: 13.6 µM (inactive)
- GI50 [16]: 11.4 µM (inactive)
- GI50 [17]: 4.43 µM (inactive)
